pIC50: −log10 of the molar value. Structures can show the parent of a compound that is named as a salt.

Test system in the first series: not given
Test: not given
Details: not given
By melting point is commonly meant the temperature of the solid-liquid transition. `CC(C)(C)OC(=O)N1CCC[C@@H]1C(=O)OCCCNc1cccc2c1C(=O)c1ccccc1C2=O` came in with a melting point of 120 °C.

For the compound `CN(CC(=O)OCCCCNc1cccc2c1C(=O)c1ccccc1C2=O)C(=O)OC(C)(C)C` [Example 82, 1-[4-(N-tertiarybutoxycarbonylsarcosyloxy)butylamino]anthracene-9,10-dione], the melting point amounted to 90 °C.

The compound `C[C@H](NC(=O)OC(C)(C)C)C(=O)OCCCCNc1cccc2c1C(=O)c1ccccc1C2=O` [Example 42, 1-[4-(N-tertiarybutoxycarbonyl-L-alanyloxy)butylamino] anthracene-9,10-dione] returned a melting point of 102 °C. Same read-out and setting: to `C[C@@H](NC(=O)OC(C)(C)C)C(=O)OCCCCNc1cccc2c1C(=O)c1ccccc1C2=O` [Example 44, 1-[4-(N-tertiarybutoxycarbonyl-D-alanyloxy)butylamino] anthracene-9,10-dione] belongs 100 °C; to `CC(C)(C)OC(=O)NCC(=O)OCCCCNc1cccc2c1C(=O)c1ccccc1C2=O` [Example 80, 1-[4-(N-tertiarybutoxycarbonylglycyloxy)butylamino]anthracene-9,10-dione], 70 °C. Still for that read-out and setting: with `C[C@@H](C(=O)OCCCCNc1cccc2c1C(=O)c1ccccc1C2=O)N(C)C(=O)OC(C)(C)C` the figure was 62 °C; with `CC(C)(C)OC(=O)NCC(=O)OCCCNc1ccc(O)c2c1C(=O)c1c(O)cccc1C2=O`, 152 °C. Same read-out and setting: to `CC(C)C[C@H](NC(=O)OC(C)(C)C)C(=O)NCC(=O)OCCCNc1cccc2c1C(=O)c1ccccc1C2=O` belongs 86 °C. Compound `NCC(=O)OCCCCNc1cccc2c1C(=O)c1ccccc1C2=O` (as salt: trifluoroacetate) [Example 81, 1-[4-(glycyloxy)butylamino]anthracene-9,10-dione trifluoroacetate] had a melting point of 154 °C. The compound `C[C@H](NC(=O)OC(C)(C)C)C(=O)OCCCNc1cccc2c1C(=O)c1ccccc1C2=O` gave a melting point of 60 °C. The same measure, in the same setting: to `CC[C@H](NC(=O)OC(C)(C)C)C(=O)OCCCCNc1cccc2c1C(=O)c1ccccc1C2=O` belongs 58 °C.

`CC(C)(C)OC(=O)NCC(=O)OCCCNc1ccc(O)c2c1C(=O)c1ccccc1C2=O`: the melting point worked out at 124 °C.

A further series deals with MAC 15A adenocarcinoma of the colon. Put plainly: In vitro chemosensitivity against MAC 15A adenocarcinoma (MTT assay). In kind it is cell-based. The following applies: 96 hours continuous exposure. Here is the method:
In Vitro Activity Against MAC 15A Adenocarcinoma.
MAC 15A cells were grown in RPMI 1640 medium supplemented with 10% foetal calf serum containing a 1% antibiotic mixture under standard tissue culture conditions and were maintained at 37° C. in a humidified atmosphere of 5% CO2 in air. Cells were harvested from a stock culture in exponential growth phase and plated in 96-well flat-bottomed plates to achieve a final density of 2×10^3 cells per well. After 2 hours incubation medium was replaced with either fresh medium containing 0.5% DMSO (control) or medium containing test compound dissolved in DMSO at a concentrations from 10 mM to 1 nM. Chemosensitivity was assessed using MTT assay by the method of Plumb et al Cancer Research 49 (1989) 4435-4440.
Following 96 hours continuous exposure to drug at 37° C. cells were incubated with fresh drug-free medium immediately prior to addition of MTT solution (5 mg/ml). Medium and MTT were removed after 4 hours and 150 μl of DMSO was added. For each plate the absorbance of the resulting solution was measured at the analytical wavelength 550 nm for formazan product, using a Labsystem Mutiskan. IC50 values were obtained from growth curves of drug concentration against % survival and are expressed in μm.
As a reminder, the pIC50 is −log10 of the IC50, conventionally taken in molar units. A low value points to a high IC50. Consider `NCC(=O)OCCN1CCN(c2cccc3c2C(=O)c2ccccc2C3=O)CC1` [Example 107, 2-[4-(9,10-dioxoanthryl)piperazinyl]ethyl 2-aminoacetate bis-trifluoroacetate], for which the pIC50 is 4.62. `N[C@@H](CCCNC(=O)OCc1ccccc1)C(=O)OCCCNc1cccc2c1C(=O)c1ccccc1C2=O` [Example 71, 1-[3-(N-δ-benzyloxycarbonyl-L-ornithyloxy)propylaminol]anthracene-9,10-dione trifluoroacetate] had a pIC50 of 5.62. Same read-out and setting: to `C[C@H](N)C(=O)OC[C@@H]1CCCN1c1cccc2c1C(=O)c1ccccc1C2=O` [Example 121, [(2S)-1-(9,10-dioxoanthryl)pyrrolidin-2-yl]methyl (2S)-2-amino-propanoate trifluoroacetate] belongs 4.66.

`C[C@@H](N)C(=O)OCCc1ccc(Nc2cccc3c2C(=O)c2ccccc2C3=O)cc1` [Example 105] showed a pIC50 of 5.47. The compound `C[C@H](N)C(=O)OCC(C)(C)Nc1cccc2c1C(=O)c1ccccc1C2=O` [Example 99, 2-[(9,10-dioxoanthryl)amino]-2-methylpropyl (2S)-2-amino propanoate trifluoroacetate] had a pIC50 of 4.46. Compound `NCC(=O)N1CCC[C@H]1C(=O)OC[C@H](Cc1ccccc1)Nc1ccc(O)c2c1C(=O)c1c(O)cccc1C2=O` [Example 135, (2S)-2-[(4,8-dihydroxy-9,10-dioxoanthryl)amino]-3-phenylpropyl (2S) -1-(2-aminoacetyl)pyrrolidine-2-carboxylate trifluoroacetate] gave a pIC50 of 5.60. Regarding `C[C@H](N)C(=O)OCCc1ccc(Nc2cccc3c2C(=O)c2ccccc2C3=O)cc1` [Example 103], the pIC50 was 5.33.

For the compound “(2S)-2-[(9,10-dioxoanthryl)amino]propyl (2S)-2-propanoate trifluoroacetate [Example 119]”, the pIC50 was 5.26. `C[C@H](N)C(=O)OC1CCN(c2cccc3c2C(=O)c2ccccc2C3=O)CC1` [Example 117, 1-(9,10-dioxoanthryl)-4-piperidyl-(2S)-2-aminopropanoate trifluoro-acetate] had a pIC50 of 4.85. The same measure, in the same setting: to `CC(C)(COC(=O)CN)Nc1cccc2c1C(=O)c1ccccc1C2=O` [Example 97, 2-[(9,10-dioxoanthryl)amino]-2-methylpropyl 2-aminoacetate trifluoro-acetate] belongs 4.82.

Staying with this series, now noted: Mus musculus, MAC15A, 96 h, 96 hours continuous exposure.
Consider `CC(C)[C@H](N)C(=O)OCCCNc1ccc(O)c2c1C(=O)c1ccccc1C2=O` [Example 51, 4-hydroxy-1-[3-(L-valyloxy)propylamino]anthracene-9,10-dione tri-fluoroacetate], for which the pIC50 is 5.31. Consider `C[C@H](N)C(=O)OCCOCCNc1cccc2c1C(=O)c1ccccc1C2=O` [Example 109, 1-[2-(2-{L-alanyloxy}ethoxy)ethylamino]anthracene-9,10-dione tri-fluoroacetate], for which the pIC50 was 4.94. Still for that read-out and setting: with `COc1ccc(C[C@H](N)C(=O)OCCCNc2cccc3c2C(=O)c2ccccc2C3=O)cc1` [Example 79, 1-[3-(O-methyl-L-tyrosyloxy)propylamino]anthracene-9,10dione tri-fluoroacetate] the figure was 5.46; with `C[C@@H](N)C(=O)OCCOCCNc1cccc2c1C(=O)c1ccccc1C2=O` [Example 111, 1-[2-(2-{D-alanyloxy}ethoxy)ethylamino]anthracene-9,10-dione tri-fluoroacetate], 4.62.

The series is the same for the next values; noted with them: Mus musculus, MAC15A, 96 hours continuous exposure.
For `CCCC(=O)OCCCCNc1cccc2c1C(=O)c1ccccc1C2=O` [Example 89, 1-[4-(butanoyloxy)butylamino]anthracene-9,10-dione trifluoroacetate], the pIC50 was 5.35. Still for that read-out and setting: with `N[C@@H](Cc1ccccc1)C(=O)OCCCNc1cccc2c1C(=O)c1ccccc1C2=O` [Example 39, 1-[3-(L-phenylalanyloxy)propylamino]anthracene-9,10-dione trifluoro-acetate] the figure was 5.52.

Consider `N[C@H](Cc1ccccc1)C(=O)OCCOCCNc1cccc2c1C(=O)c1ccccc1C2=O` [Example 115, 1-{2-(2-[D-phenylalanyloxy]ethoxy)ethylamino}anthracene-9,10-dione trifluoroacetate], for which the pIC50 is 4.92. On the same count and under the same terms, to `N[C@@H](Cc1c[nH]c2ccccc12)C(=O)OCCCCCONc1cccc2c1C(=O)c1ccccc1C2=O` [Example 77, 1-[5-(L-tryptophyloxy)pentoxyamino]anthracene-9,10-dione trifluoro-acetate] belongs 5.26. Same read-out and setting: with `NCC(=O)NCC(=O)OCCCNc1cccc2c1C(=O)c1ccccc1C2=O` [Example 129, 1-[3-(glycylglycyloxy)propylamino]anthracene-9,10-dione trifluoro-acetate] the figure was 5.40; with `NCC(=O)OCCCCNc1cccc2c1C(=O)c1ccccc1C2=O` [Example 81, 1-[4-(glycyloxy)butylamino]anthracene-9,10-dione trifluoroacetate], 5.03; with `CC(C)[C@@H](N)C(=O)OCCNc1cccc2c1C(=O)c1ccccc1C2=O` [Example 27, 1-[2-(D-valyloxy)ethylamino]anthracene-9,10-dione trifluoroacetate], 4.85. Still for that read-out and setting: to `CN[C@@H](C)C(=O)OCCCCNc1cccc2c1C(=O)c1ccccc1C2=O` [Example 85, 1-[4-(methylalanyloxy)butylamino]anthracene-9,10-dione trifluoro-acetate] belongs 5.49. Consider `N[C@@H](C(=O)OCCCNc1cccc2c1C(=O)c1ccccc1C2=O)c1ccccc1` [Example 75, 1-[3-(D-phenylglycyloxy)propylamino]anthracene-9, 10dione trifluoro-acetate], for which the pIC50 was 5.38. `C[C@H](N)C(=O)OCCNc1cccc2c1C(=O)c1ccccc1C2=O` [Example 23, 1-[2-(L-alanyloxy)ethylamino]anthracene-9,10-dione trifluoroacetate] showed a pIC50 of 5.12.

Consider `C[C@H](N)C(=O)OCCCCCNc1cccc2c1C(=O)c1ccccc1C2=O` [Example 93, 1-[5-(L-alanyloxy)pentylamino]anthracene-9,10-dione trifluoroacetate], for which the pIC50 was 5.46. On the same count and under the same terms, to `N[C@H](C(=O)OCCCNc1cccc2c1C(=O)c1ccccc1C2=O)c1ccccc1` [Example 73, 1-[3-(L-phenylglycyloxy)propylamino]anthracene-9,10dione trifluoro-acetate] belongs 5.30; to `CC(C)[C@H](N)C(=O)OCCNc1cccc2c1C(=O)c1ccccc1C2=O` [Example 25, 1-[2-(L-valyloxy)ethylamino]anthracene-9,10-dione trifluoroacetate], 4.52. Same read-out and setting: to `C[C@@H](N)C(=O)OCCCCCNc1cccc2c1C(=O)c1ccccc1C2=O` [Example 95, 1-[5-(D-alanyloxy)pentylamino]anthracene-9,10-dione trifluoroacetate] belongs 5.51; to `N[C@@H](Cc1ccccc1)C(=O)OCCOCCNc1cccc2c1C(=O)c1ccccc1C2=O` [Example 113, 1-[2-(2-{L-phenylalanyloxy}ethoxy)ethylamino]anthracene-9,10-dione trifluoroacetate], 5.15.

Values taken from patent US20030203975A1, “Anti-cancer agents” (priority 1998, published 2003).
